This is an account of results in US10080756B2, “Combination methods for treating cancers” (Gilead Sciences, Inc., priority 2014, dated 2018).

One data set has as its system DHL-10. Put plainly: Cell Titer Glo viability assay, DHL-10, alone or with compound of Formula I (Example 3). Particulars: for Fold shift: EC50 alone vs +300 nM Compound of Formula I. How it is done:
All procedures were performed at Gilead Sciences, Inc. in Branford, Conn. […] Compound plates were diluted 1:100 in RPMI without serum or additives but containing either 1% DMSO or 3 μM of the compound of Formula I creating a 10× stock. The DLBCL cell line, DHL-10 was plated at 10,000 cells per well in RPMI supplemented with 10% FBS and 100 U/L penicillin-streptomycin. To each well containing cells, 11 μl of 10× compound mixture in serum-free media was added in a final concentration of 0.2% DMSO and cells were incubated at 37° C. in 5% CO2 for 72 hours. Cell viability was assessed using Cell Titer Glo (CTG, Promega, Madison, Wis.) following the manufacturer's protocol on an Envision plate reader (Perkin Elmer, Waltham, Mass.). CTG signals were recorded for individual compound treatments and combinations. EC50 values were determined using a four parameter variable slope model with GraphPad Prism 6.0 software.

For data set [1] the following is noted: in vivo; cited from earlier work.
The subject of another data set is SU-DHL-2. Put plainly: Cell Titer Glo viability assay, SU-DHL-2. The settings on record: Homo sapiens, read-out: Inhibition of Viability, EC50. In kind it is cell-based. How it is done:
(§1) All procedures were performed at Gilead Sciences, Inc. in Branford, The compound of formula (I), cyclophosphamide, doxorubicin and vincristine sulfate were dissolved in DMSO to prepare stock solutions that were serially diluted three-fold in DMSO in a 96 well plate format at 1000× so the final starting assay concentrations tested would be 10 μM, 200 μM, 10 μM, and 1 μM respectively, for each compound. Compound plates were diluted 1:100 in RPMI without serum or additives creating a 10× stock. Cells were seeded into a 96-well plate at 10,000-20,000 cells per well in 100 μl of growth media appropriate to the cell line supplemented with 100 U/L penicillin-streptomycin. OCI-Ly3, OCI-Ly4 and OCI-Ly7 were grown in Iscove's+20% FBS, OCI-Ly19 was grown in alphaMEM+20% FBS, and all other cell lines were grown in RPMI+10% FBS. To each well, 11 μl of 10× compound was added in a final concentration of 0.1% DMSO and cells were incubated at 37° C. in 5% CO2 for 72 hours. Cell viability was assessed with Cell Titer Glo (Promega, Madison, Wis.) following the manufacturer's protocol on an Envision plate reader (Perkin Elmer, Waltham, Mass.). EC50 values were determined using a four parameter variable slope model with GraphPad Prism 6.0 software. All EC50 values represent mean values of from duplicate dose response curves.

Another data set has as its system SU-DHL-4. Put plainly: Cell Titer Glo viability assay, SU-DHL-4. In kind it is cell-based. The settings on record: Homo sapiens, read-out: Inhibition of Viability, EC50. How it is done:
as §1

The test system of the next data set is WSU-FSCCL. Put plainly: Cell Titer Glo viability assay, WSU-FSCCL. In kind it is cell-based. The settings on record: read-out: Inhibition of Viability, EC50. How it is done:
as §1

In another data set the test system is Pfeiffer. Put plainly: Cell Titer Glo viability assay, Pfeiffer. In kind it is cell-based. The settings on record: Homo sapiens, read-out: Inhibition of Viability, EC50. How it is done: as §1
The next data set concerns OCI-LY3. Kind of data set: Cell Titer Glo viability assay, OCI-LY3. The settings on record: Homo sapiens, read-out: Inhibition of Viability, EC50. In kind it is cell-based. As to the method:
as §1

Data set [2] relates to 10 diffuse large B-cell lymphoma (DLBCL), 4 multiple myeloma (MM), 2 follicular lymphoma (FL), and 1 mantle cell lymphoma (MCL) cell lines. Put plainly: Cell Titer Glo viability assay, summary over all cell lines tested. Particulars: at concentrations <10000 nM. In kind it is cell-based. As to the method: as §1
In another data set the test system is MM1.S. Put plainly: Cell Titer Glo viability assay, MM1.S. In kind it is cell-based. The settings on record: Homo sapiens, read-out: Inhibition of Viability, EC50. How it is done: as §1
Another data set has as its system Mino. Kind of data set: Cell Titer Glo viability assay, Mino. In kind it is cell-based. The settings on record: Homo sapiens, read-out: Inhibition of Viability, EC50. As to the method: as §1
A further data set has as its system OCI-LY19. Kind of data set: Cell Titer Glo viability assay, OCI-LY19. In kind it is cell-based. The settings on record: Homo sapiens, read-out: Inhibition of Viability, EC50. As to the method: as §1
The test system of the next data set is OCI-LY4. Kind of data set: Cell Titer Glo viability assay, OCI-LY4. Particulars: read-out: Inhibition of Viability, EC50. In kind it is cell-based. As to the method: as §1
A further data set relates to Karpas 422. Put plainly: Cell Titer Glo viability assay, Karpas 422. In kind it is cell-based. The settings on record: Homo sapiens, read-out: Inhibition of Viability, EC50. How it is done:
as §1

For the next data set, the system named is SU-DHL-10. Kind of data set: Cell Titer Glo viability assay, SU-DHL-10. In kind it is cell-based. The settings on record: Homo sapiens, read-out: Inhibition of Viability, EC50. How it is done: as §1
The next data set relates to KMS-11. Put plainly: Cell Titer Glo viability assay, KMS-11. Particulars: Homo sapiens, read-out: Inhibition of Viability, EC50. In kind it is cell-based. How it is done:
as §1

The next data set relates to RPMI-8266. Put plainly: Cell Titer Glo viability assay, RPMI-8266. Particulars: read-out: Inhibition of Viability, EC50. In kind it is cell-based. How it is done: as §1
For the next data set, the system named is SU-DHL-6. Put plainly: Cell Titer Glo viability assay, SU-DHL-6. In kind it is cell-based. Particulars: Homo sapiens, read-out: Inhibition of Viability, EC50. As to the method: as §1
The next data set relates to WSU-NHL. Kind of data set: Cell Titer Glo viability assay, WSU-NHL. The settings on record: Homo sapiens, read-out: Inhibition of Viability, EC50. In kind it is cell-based. As to the method:
as §1

A further data set deals with OPM-2. Put plainly: Cell Titer Glo viability assay, OPM-2. In kind it is cell-based. The settings on record: Homo sapiens, read-out: Inhibition of Viability, EC50. As to the method: as §1
A further data set relates to OCI-LY7. Put plainly: Cell Titer Glo viability assay, OCI-LY7. In kind it is cell-based. The settings on record: Homo sapiens, read-out: Inhibition of Viability, EC50. How it is done:
as §1

Data set [3] can be described thus: Cell Titer Glo viability assay, summary over all cell lines tested. In kind it is cell-based. Particulars: B-cell; range over the 17 cell lines of Table 1; read-out: EC50 values to inhibit cell viability, range over cell lines. How it is done: as §1
The mark [4] stands for this setting: Homo sapiens, 72 h, read-out: Inhibition of cell viability EC50, No Compound of Formula I.
Where [5] appears, read: read-out: Inhibition of cell viability EC50, +300 nM Compound of Formula I, DHL-10, in combination with 300 nM compound of Formula I, 72 hours.

Where two headings read alike, the source gives them in different places.

On to `CC(=O)O[C@H]1C(=O)[C@@]2(C)[C@H]([C@H](OC(=O)c3ccccc3)[C@]3(O)C[C@H](OC(=O)[C@H](O)[C@@H](NC(=O)c4ccccc4)c4ccccc4)C(C)=C1C3(C)C)[C@]1(OC(C)=O)CO[C@@H]1C[C@@H]2O` [Taxol, taxol], for which the EC50 in the data set with DHL-10 (setting [4]) was 7.1 nM; in the data set on DHL-10 (setting [5]) it was 5.6 nM.

Turning to `CC[C@]1(O)C[C@@H]2CN(CCc3c([nH]c4ccccc34)[C@@](C(=O)OC)(c3cc4c(cc3OC)N(C)[C@H]3[C@@](O)(C(N)=O)[C@H](O)[C@]5(CC)C=CCN6CC[C@]43[C@@H]65)C2)C1` [Vindesine, vindesine], the serum half-life in [1] is 24 h.

Consider `O=P1(N(CCCl)CCCl)NCCCO1` (centres unmarked) [Cyclophosphamide, cyclophosphamide], for which the EC50 with SU-DHL-2 (SU-DHL-2, 72 h) is over 10000 nM; with SU-DHL-4 (SU-DHL-4, 72 h) it was over 10000 nM; in the data set with WSU-FSCCL (72 h), over 10000 nM; in the data set on Pfeiffer (72 h) it was over 10000 nM; in the data set on OCI-LY3 (OCI-Ly3, 72 h), over 10000 nM; in the data set on MM1.S (72 h) it was over 10000 nM. Also, the EC50 in the data set on Mino (MINO, 72 h) was over 10000 nM; in the data set on OCI-LY19 (OCI-LY19, 72 h), over 10000 nM; in the data set with OCI-LY4 (72 h), over 10000 nM; in the data set with Karpas 422 (KARPAS-422, 72 h), over 10000 nM; in the data set on SU-DHL-10 (SU-DHL10, 72 h), over 10000 nM; with KMS-11 (KMS-11, 72 h) it was over 10000 nM. Moreover, the EC50 in the data set on RPMI-8266 (RPMI8266, 72 h) is over 10000 nM; in the data set on SU-DHL-6 (SU-DHL-6, 72 h), over 10000 nM; in the data set on WSU-NHL (72 h), over 10000 nM; in the data set with OPM-2 (OPM-2, 72 h), over 10000 nM; in the data set with OCI-LY7 (OCI-Ly7, 72 h), over 10000 nM. Moreover, the “inhibition of cell viability in any of the cell lines tested” value in data set [2] is “did not show inhibition cell viability”.

On to `COc1cc2c(c(OC)c1OC)-c1ccc(OC)c(=O)cc1[C@@H](NC(C)=O)CC2` [Colchicine, colchicine], for which the Fold shift with DHL-10 (DHL-10) came out at 1.0. Moreover, the results for the EC50 in the data set with DHL-10 (setting [4]) and in the data set with DHL-10 (setting [5]) were 13.5 nM and 14.2 nM, respectively.

For the molecule `COc1cccc2c1C(=O)c1c(O)c3c(c(O)c1C2=O)C[C@@](O)(C(=O)CO)C[C@@H]3O[C@H]1C[C@H](N)[C@H](O)[C@H](C)O1` [Doxorubicin, doxorubicin], the EC50 in the data set with SU-DHL-2 (SU-DHL-2, DLBCL, single agent, 72 hours) is 216 nM; in the data set on SU-DHL-4 (SU-DHL-4, DLBCL, single agent, 72 hours) it was 215 nM; in the data set on WSU-FSCCL (WSU-FSCCL, FL, single agent, 72 hours), 52 nM; in the data set with Pfeiffer (DLBCL, single agent, 72 hours), 198 nM; in the data set with OCI-LY3 (OCI-LY3, DLBCL, single agent, 72 hours), 26 nM; in data set [3], 3.1 to 557 nM. The EC50 with MM1.S (MM, single agent, 72 hours) is 66 nM; with Mino (Mino, MCL, single agent, 72 hours) it was 114 nM; in the data set with DHL-10 (setting [4]) it was 152 nM; in the data set on DHL-10 (setting [5]), 161 nM; in the data set with OCI-LY19 (OCI-LY19, DLBCL, single agent, 72 hours), 3.1 nM; in the data set with OCI-LY4 (OCI-LY4, DLBCL, single agent, 72 hours), 37 nM. Also, the EC50 in the data set on Karpas 422 (Karpas 422, DLBCL, single agent, 72 hours) turned out to be 305 nM; with SU-DHL-10 (SU-DHL10, SU-DHL-10, DLBCL, single agent, 72 hours), 195 nM; in the data set on KMS-11 (KMS-11, MM, single agent, 72 hours) it was 469 nM; in the data set on RPMI-8266 (RPMI8266, RPMI-8266, MM, single agent, 72 hours) it was 176 nM; in the data set on SU-DHL-6 (SU-DHL-6, DLBCL, single agent, 72 hours) it was 125 nM; in the data set with WSU-NHL (FL, single agent, 72 hours), 128 nM. The EC50 in the data set on OPM-2 (OPM-2, MM, single agent, 72 hours) was found to be 557 nM; with OCI-LY7 (OCI-LY7, DLBCL, single agent, 72 hours), 199 nM.

As to `COc1ccc(/C=C\c2cc(OC)c(OC)c(OC)c2)cc1O` [Combretastatin A4, combretastatin A4], the Fold shift with DHL-10 (DHL-10) is listed as 1.2. In addition, the EC50 with DHL-10 (setting [5]) was determined as 4.8 nM; in the data set with DHL-10 (read-out: Inhibition of cell viability EC50, No Compound of Formula I, DHL-10, compound alone, 72 hours), 5.9 nM.
